Experimental data published in patent publication US6329137A (priority 2000, dated 2001).
pIC50: −log10 of the molar value. Like-named read-outs stand apart in the source and are kept apart here.

Legend:
CD45-cat = format: cell-based; conditions: infected sf9 cells, 10 mM pNPP
[1] = system: background phosphatases in mock-infected sf9 cells; format: cell-based, fall armyworm Spodoptera; conditions: for effect on background phosphatases: infected sf9 cells, 10 mM pNPP
CD45 = format: cell-based
[2] = system: PTPs (PTP1B-FL, CD45-cat and CD45-FL); format: cell-based
PTP1B-FL = PTP1B-FL (Homo sapiens, UniProt P18031); test: cell-based
recombinant PTP1B = conditions: oxidizing its catalytic site cysteine; cited from earlier work
PTP = conditions: cited from earlier work

PTP1B-FL, sequence (P18031 whole entry): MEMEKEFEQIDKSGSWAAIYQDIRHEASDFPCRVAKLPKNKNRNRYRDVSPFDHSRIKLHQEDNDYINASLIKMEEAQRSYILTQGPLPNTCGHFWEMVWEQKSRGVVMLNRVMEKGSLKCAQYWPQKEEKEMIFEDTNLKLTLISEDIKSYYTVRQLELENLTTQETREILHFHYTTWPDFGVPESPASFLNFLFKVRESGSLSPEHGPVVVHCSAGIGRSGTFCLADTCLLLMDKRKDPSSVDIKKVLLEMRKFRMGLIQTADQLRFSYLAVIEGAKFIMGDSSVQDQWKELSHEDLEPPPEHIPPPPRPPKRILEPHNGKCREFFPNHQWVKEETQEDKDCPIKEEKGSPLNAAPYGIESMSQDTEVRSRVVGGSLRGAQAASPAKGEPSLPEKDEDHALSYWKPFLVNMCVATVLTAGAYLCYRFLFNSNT

Question: With `C[C@@H]1O[C@@H](O[C@H]2C[C@@H](O)[C@]3(CO)[C@H]4[C@H](O)C[C@]5(C)[C@@H](C6=CC(=O)OC6)CC[C@]5(O)[C@@H]4CC[C@]3(O)C2)[C@H](O)[C@H](O)[C@H]1O` [ouabain] as the compound, how does the “effect on CD45-cat phosphatase” value (CD45-cat; ouabain at 1 mM) read?
Answer: Its value is “Neither ouabain at 1 mM or okadaic acid at 6.7 μM had any effect”.

Question: And the “inhibition of background infected cells” value [1]?
Answer: The value was “no inhibition up to 1 mM”.

Question: What about the “effect on background phosphatases” value ([1]; ouabain at 1 mM) of the same compound?
Answer: The value was “Neither ouabain at 1 mM or okadaic acid at 6.7 μM had any effect”.

Question: What about the “inhibition of CD45 expressing cells” value (CD45) of the same compound?
Answer: Its value is “no inhibition up to 1 mM”.

Question: Which results are given for `C=C1[C@@H](O)[C@@H]2O[C@]3(CC[C@H](/C=C/[C@@H](C)[C@@H]4CC(C)=C[C@@]5(O[C@H](C[C@@](C)(O)C(=O)O)CC[C@H]5O)O4)O3)CC[C@H]2O[C@@H]1[C@@H](O)C[C@H](C)[C@H]1O[C@@]2(CCCCO2)CC[C@H]1C` [okadaic acid]?
Answer: effect on CD45-cat phosphatase (CD45-cat; okadaic acid at 6.7 μM): Neither ouabain at 1 mM or okadaic acid at 6.7 μM had any effect; effect on background phosphatases ([1]; okadaic acid at 6.7 μM): Neither ouabain at 1 mM or okadaic acid at 6.7 μM had any effect; effect on pNPP hydrolysis [2]: had no effect

Question: Which results are given for `OO` [hydrogen peroxide]?
Answer: pIC50 (PTP1B-FL): 4.82 to 5.00; pIC50 (CD45; read-out: IC50 range): 4.82 to 5.00; potency and selectivity in words ([2]; intact sf9 cells, 10 mM pNPP): limited potency and selectivity; pIC50 ([2]; read-out: IC50 values in the range of): 4.80 to 5.15; inactivation of recombinant PTP1B in vitro (recombinant PTP1B): inactivate recombinant PTP1B in vitro

Question: What does the source list for `[Na+].[Na+].[Na+].[O]=[V]([O-])([O-])[O-]` [vanadate, sodium orthovanadate]?
Answer: pIC50 [1]: 5.80; mode of binding at active site (PTP): competitively and reversibly bound at the active site
